Source: the supplement of paper PMC10307832

How the values were obtained:
Experiment in all cases: relative viability (nuclei count vs DMSO), 5 days (fraction); higher = more cells survive
Ispinesib + Bortezomib = compound: Cc1ccc(C(=O)N(CCCN)[C@@H](c2nc3cc(Cl)ccc3c(=O)n2Cc2ccccc2)C(C)C)cc1 [Ispinesib] + CC(C)C[C@H](NC(=O)[C@H](Cc1ccccc1)NC(=O)c1cnccn1)B(O)O [Bortezomib] (partner 0.002 µM)
Method in brief: (§1)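 Five library-drug doses in √10 steps were combined with a fixed anchor-drug dose, or a single drug was given alone, by pin tool to lung cancer cell lines in 1536-well plates the day after seeding. Nuclei were stained and counted after 5 days. Relative viability is the nuclei count in treated wells over that in vehicle wells, taken as the median of duplicate plates.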

Ispinesib + Lapatinib = compound: Cc1ccc(C(=O)N(CCCN)[C@@H](c2nc3cc(Cl)ccc3c(=O)n2Cc2ccccc2)C(C)C)cc1 [Ispinesib] + CS(=O)(=O)CCNCc1ccc(-c2ccc3ncnc(Nc4ccc(OCc5cccc(F)c5)c(Cl)c4)c3c2)o1 [Lapatinib] (partner 2 µM)
Method in brief: as §1

Linsitinib + Luminespib = compound: C[C@]1(O)C[C@@H](c2nc(-c3ccc4ccc(-c5ccccc5)nc4c3)c3c(N)nccn32)C1 [Linsitinib] + CCNC(=O)c1noc(-c2cc(C(C)C)c(O)cc2O)c1-c1ccc(CN2CCOCC2)cc1 [Luminespib] (partner 0.01 µM)
Method in brief: as §1

Linsitinib + AZD7762 = compound: C[C@]1(O)C[C@@H](c2nc(-c3ccc4ccc(-c5ccccc5)nc4c3)c3c(N)nccn32)C1 [Linsitinib] + NC(=O)Nc1cc(-c2cccc(F)c2)sc1C(=O)N[C@H]1CCCNC1 [AZD7762] (partner 0.2 µM)
Method in brief: as §1

## EBC-1
Ispinesib + Bortezomib; first compound 0.001 µM
  relative viability: 0.663
Ispinesib + Bortezomib; first compound 0.003162 µM
  relative viability: 0.626
Ispinesib + Bortezomib; first compound 0.01 µM
  relative viability: 0.476
Ispinesib + Bortezomib; first compound 0.03162 µM
  relative viability: 0.207
Ispinesib + Bortezomib; first compound 0.1 µM
  relative viability: 0.263
Ispinesib + Lapatinib; first compound 0.001 µM
  relative viability: 0.203
Ispinesib + Lapatinib; first compound 0.003162 µM
  relative viability: 0.204
Ispinesib + Lapatinib; first compound 0.01 µM
  relative viability: 0.223
Ispinesib + Lapatinib; first compound 0.03162 µM
  relative viability: 0.13
Ispinesib + Lapatinib; first compound 0.1 µM
  relative viability: 0.193

## COR-L 105
Ispinesib + Bortezomib; first compound 0.001 µM
  relative viability: 0.836
Ispinesib + Bortezomib; first compound 0.003162 µM
  relative viability: 0.664
Ispinesib + Bortezomib; first compound 0.01 µM
  relative viability: 0.325
Ispinesib + Bortezomib; first compound 0.03162 µM
  relative viability: 0.311
Ispinesib + Bortezomib; first compound 0.1 µM
  relative viability: 0.303
Linsitinib + Luminespib; first compound 0.01 µM
  relative viability: 0.857
Linsitinib + Luminespib; first compound 0.03162 µM
  relative viability: 0.688
Linsitinib + Luminespib; first compound 0.1 µM
  relative viability: 0.644
Linsitinib + Luminespib; first compound 0.3162 µM
  relative viability: 0.638
Linsitinib + Luminespib; first compound 1 µM
  relative viability: 0.581
Ispinesib + Lapatinib; first compound 0.001 µM
  relative viability: 0.347
Ispinesib + Lapatinib; first compound 0.003162 µM
  relative viability: 0.311
Ispinesib + Lapatinib; first compound 0.01 µM
  relative viability: 0.251
Ispinesib + Lapatinib; first compound 0.03162 µM
  relative viability: 0.247
Ispinesib + Lapatinib; first compound 0.1 µM
  relative viability: 0.265

## NCI-H1793
Linsitinib + Luminespib; first compound 0.01 µM
  relative viability: 0.166
Linsitinib + Luminespib; first compound 0.03162 µM
  relative viability: 0.205
Linsitinib + Luminespib; first compound 0.1 µM
  relative viability: 0.164
Linsitinib + Luminespib; first compound 0.3162 µM
  relative viability: 0.149
Linsitinib + Luminespib; first compound 1 µM
  relative viability: 0.178
Linsitinib + AZD7762; first compound 0.01 µM
  relative viability: 0.577
Linsitinib + AZD7762; first compound 0.03162 µM
  relative viability: 0.559
Linsitinib + AZD7762; first compound 0.1 µM
  relative viability: 0.39
Linsitinib + AZD7762; first compound 0.3162 µM
  relative viability: 0.352
Linsitinib + AZD7762; first compound 1 µM
  relative viability: 0.169
Ispinesib + Lapatinib; first compound 0.001 µM
  relative viability: 0.655
Ispinesib + Lapatinib; first compound 0.003162 µM
  relative viability: 0.84
Ispinesib + Lapatinib; first compound 0.01 µM
  relative viability: 0.909
Ispinesib + Lapatinib; first compound 0.03162 µM
  relative viability: 0.377
Ispinesib + Lapatinib; first compound 0.1 µM
  relative viability: 0.238

## SW 1573
Ispinesib + Bortezomib; first compound 0.001 µM
  relative viability: 1.07
Ispinesib + Bortezomib; first compound 0.003162 µM
  relative viability: 1.05
Ispinesib + Bortezomib; first compound 0.01 µM
  relative viability: 1.42
Ispinesib + Bortezomib; first compound 0.03162 µM
  relative viability: 0.929
Ispinesib + Bortezomib; first compound 0.1 µM
  relative viability: 0.304
Linsitinib + Luminespib; first compound 0.01 µM
  relative viability: 0.22
Linsitinib + Luminespib; first compound 0.03162 µM
  relative viability: 0.359
Linsitinib + Luminespib; first compound 0.1 µM
  relative viability: 0.238
Linsitinib + Luminespib; first compound 0.3162 µM
  relative viability: 0.129
Linsitinib + Luminespib; first compound 1 µM
  relative viability: 0.238
Ispinesib + Lapatinib; first compound 0.001 µM
  relative viability: 1.22
Ispinesib + Lapatinib; first compound 0.003162 µM
  relative viability: 1.16
Ispinesib + Lapatinib; first compound 0.01 µM
  relative viability: 1.3
Ispinesib + Lapatinib; first compound 0.03162 µM
  relative viability: 1.25
Ispinesib + Lapatinib; first compound 0.1 µM
  relative viability: 0.238

## COR-L23
Ispinesib + Bortezomib; first compound 0.001 µM
  relative viability: 1.29
Ispinesib + Bortezomib; first compound 0.003162 µM
  relative viability: 1.04
Ispinesib + Bortezomib; first compound 0.01 µM
  relative viability: 1.17
Ispinesib + Bortezomib; first compound 0.03162 µM
  relative viability: 0.247
Ispinesib + Bortezomib; first compound 0.1 µM
  relative viability: 0.27
Linsitinib + Luminespib; first compound 0.01 µM
  relative viability: 0.678
Linsitinib + Luminespib; first compound 0.03162 µM
  relative viability: 0.48
Linsitinib + Luminespib; first compound 0.1 µM
  relative viability: 0.783
Linsitinib + Luminespib; first compound 0.3162 µM
  relative viability: 0.555
Linsitinib + Luminespib; first compound 1 µM
  relative viability: 0.583
Ispinesib + Lapatinib; first compound 0.001 µM
  relative viability: 1.03
Ispinesib + Lapatinib; first compound 0.003162 µM
  relative viability: 1.06
Ispinesib + Lapatinib; first compound 0.01 µM
  relative viability: 0.814
Ispinesib + Lapatinib; first compound 0.03162 µM
  relative viability: 0.147
Ispinesib + Lapatinib; first compound 0.1 µM
  relative viability: 0.272

## A549
Ispinesib + Lapatinib; first compound 0.001 µM
  relative viability: 1.07
Ispinesib + Lapatinib; first compound 0.003162 µM
  relative viability: 1.07
Ispinesib + Lapatinib; first compound 0.01 µM
  relative viability: 0.952
Ispinesib + Lapatinib; first compound 0.03162 µM
  relative viability: 0.172
Ispinesib + Lapatinib; first compound 0.1 µM
  relative viability: 0.127

## ChaGo-K-1
Ispinesib + Bortezomib; first compound 0.001 µM
  relative viability: 1.02
Ispinesib + Bortezomib; first compound 0.003162 µM
  relative viability: 1.45
Ispinesib + Bortezomib; first compound 0.01 µM
  relative viability: 1.11
Ispinesib + Bortezomib; first compound 0.03162 µM
  relative viability: 0.966
Ispinesib + Bortezomib; first compound 0.1 µM
  relative viability: 0.379
Linsitinib + Luminespib; first compound 0.01 µM
  relative viability: 0.644
Linsitinib + Luminespib; first compound 0.03162 µM
  relative viability: 0.535
Linsitinib + Luminespib; first compound 0.1 µM
  relative viability: 0.544
Linsitinib + Luminespib; first compound 0.3162 µM
  relative viability: 0.699
Linsitinib + Luminespib; first compound 1 µM
  relative viability: 0.728
Linsitinib + AZD7762; first compound 0.01 µM
  relative viability: 0.893
Linsitinib + AZD7762; first compound 0.03162 µM
  relative viability: 0.91
Linsitinib + AZD7762; first compound 0.1 µM
  relative viability: 0.855
Linsitinib + AZD7762; first compound 1 µM
  relative viability: 0.799

## NCI-H2023
Ispinesib + Bortezomib; first compound 0.001 µM
  relative viability: 1
Ispinesib + Bortezomib; first compound 0.003162 µM
  relative viability: 1.02
Ispinesib + Bortezomib; first compound 0.01 µM
  relative viability: 0.713
Ispinesib + Bortezomib; first compound 0.03162 µM
  relative viability: 0.144
Ispinesib + Bortezomib; first compound 0.1 µM
  relative viability: 0.147
Linsitinib + Luminespib; first compound 0.01 µM
  relative viability: 0.599
Linsitinib + Luminespib; first compound 0.03162 µM
  relative viability: 0.627
Linsitinib + Luminespib; first compound 0.1 µM
  relative viability: 0.879
Linsitinib + Luminespib; first compound 0.3162 µM
  relative viability: 0.646
Linsitinib + Luminespib; first compound 1 µM
  relative viability: 0.501
Ispinesib + Lapatinib; first compound 0.001 µM
  relative viability: 0.771
Ispinesib + Lapatinib; first compound 0.003162 µM
  relative viability: 0.819
Ispinesib + Lapatinib; first compound 0.01 µM
  relative viability: 0.424
Ispinesib + Lapatinib; first compound 0.03162 µM
  relative viability: 0.134
Ispinesib + Lapatinib; first compound 0.1 µM
  relative viability: 0.115

## NCI-H441
Ispinesib + Bortezomib; first compound 0.001 µM
  relative viability: 0.48
Ispinesib + Bortezomib; first compound 0.003162 µM
  relative viability: 0.668
Ispinesib + Bortezomib; first compound 0.01 µM
  relative viability: 0.4
Ispinesib + Bortezomib; first compound 0.03162 µM
  relative viability: 0.41
Ispinesib + Bortezomib; first compound 0.1 µM
  relative viability: 0.228
Linsitinib + Luminespib; first compound 0.01 µM
  relative viability: 0.296
Linsitinib + Luminespib; first compound 0.03162 µM
  relative viability: 0.327
Linsitinib + Luminespib; first compound 0.1 µM
  relative viability: 0.211
Linsitinib + Luminespib; first compound 0.3162 µM
  relative viability: 0.245
Linsitinib + Luminespib; first compound 1 µM
  relative viability: 0.281
Linsitinib + AZD7762; first compound 0.01 µM
  relative viability: 1.2
Linsitinib + AZD7762; first compound 0.03162 µM
  relative viability: 1.07
Linsitinib + AZD7762; first compound 0.1 µM
  relative viability: 1.29
Linsitinib + AZD7762; first compound 0.3162 µM
  relative viability: 0.831
Linsitinib + AZD7762; first compound 1 µM
  relative viability: 0.898

## NCI-H1648
Linsitinib + AZD7762; first compound 0.01 µM
  relative viability: 0.683
Linsitinib + AZD7762; first compound 0.03162 µM
  relative viability: 0.671
Linsitinib + AZD7762; first compound 0.1 µM
  relative viability: 0.713
Linsitinib + AZD7762; first compound 0.3162 µM
  relative viability: 0.692
Linsitinib + AZD7762; first compound 1 µM
  relative viability: 0.612

## SK-MES-1
Linsitinib + Luminespib; first compound 0.01 µM
  relative viability: 0.845
Linsitinib + Luminespib; first compound 0.03162 µM
  relative viability: 0.854
Linsitinib + Luminespib; first compound 0.1 µM
  relative viability: 0.953
Linsitinib + Luminespib; first compound 0.3162 µM
  relative viability: 0.652
Linsitinib + Luminespib; first compound 1 µM
  relative viability: 0.762
Ispinesib + Lapatinib; first compound 0.001 µM
  relative viability: 0.534
Ispinesib + Lapatinib; first compound 0.003162 µM
  relative viability: 0.506
Ispinesib + Lapatinib; first compound 0.01 µM
  relative viability: 0.54
Ispinesib + Lapatinib; first compound 0.03162 µM
  relative viability: 0.5
Ispinesib + Lapatinib; first compound 0.1 µM
  relative viability: 0.168

## SW 900
Linsitinib + Luminespib; first compound 0.01 µM
  relative viability: 0.169
Linsitinib + Luminespib; first compound 0.03162 µM
  relative viability: 0.204
Linsitinib + Luminespib; first compound 0.1 µM
  relative viability: 0.189
Linsitinib + Luminespib; first compound 0.3162 µM
  relative viability: 0.162
Linsitinib + Luminespib; first compound 1 µM
  relative viability: 0.165
Linsitinib + AZD7762; first compound 0.01 µM
  relative viability: 0.921
Linsitinib + AZD7762; first compound 0.03162 µM
  relative viability: 0.64
Linsitinib + AZD7762; first compound 0.1 µM
  relative viability: 0.629
Linsitinib + AZD7762; first compound 0.3162 µM
  relative viability: 0.727
Linsitinib + AZD7762; first compound 1 µM
  relative viability: 0.368

## NCI-H2009
Ispinesib + Bortezomib; first compound 0.001 µM
  relative viability: 1
Ispinesib + Bortezomib; first compound 0.003162 µM
  relative viability: 0.986
Ispinesib + Bortezomib; first compound 0.01 µM
  relative viability: 0.854
Ispinesib + Bortezomib; first compound 0.03162 µM
  relative viability: 0.189
Ispinesib + Bortezomib; first compound 0.1 µM
  relative viability: 0.261
Linsitinib + Luminespib; first compound 0.01 µM
  relative viability: 1.01
Linsitinib + Luminespib; first compound 0.03162 µM
  relative viability: 1.01
Linsitinib + Luminespib; first compound 0.1 µM
  relative viability: 1.06
Linsitinib + Luminespib; first compound 1 µM
  relative viability: 1.06
Ispinesib + Lapatinib; first compound 0.001 µM
  relative viability: 0.954
Ispinesib + Lapatinib; first compound 0.003162 µM
  relative viability: 0.781
Ispinesib + Lapatinib; first compound 0.01 µM
  relative viability: 0.558
Ispinesib + Lapatinib; first compound 0.03162 µM
  relative viability: 0.142
Ispinesib + Lapatinib; first compound 0.1 µM
  relative viability: 0.305
